Earlier results, collected in patent publication US20240374879A1, “METHODS AND COMPOSITIONS TO REDUCE CELLULAR DEPOSITION, AND HYDROCEPHALUS SHUNT FAILURE” (Wayne State University, priority 2021, published 2024).

Biological target: T1, TLR-4 (Mus musculus, UniProt Q9QUK6)
T1 sequence (Q9QUK6 26-835): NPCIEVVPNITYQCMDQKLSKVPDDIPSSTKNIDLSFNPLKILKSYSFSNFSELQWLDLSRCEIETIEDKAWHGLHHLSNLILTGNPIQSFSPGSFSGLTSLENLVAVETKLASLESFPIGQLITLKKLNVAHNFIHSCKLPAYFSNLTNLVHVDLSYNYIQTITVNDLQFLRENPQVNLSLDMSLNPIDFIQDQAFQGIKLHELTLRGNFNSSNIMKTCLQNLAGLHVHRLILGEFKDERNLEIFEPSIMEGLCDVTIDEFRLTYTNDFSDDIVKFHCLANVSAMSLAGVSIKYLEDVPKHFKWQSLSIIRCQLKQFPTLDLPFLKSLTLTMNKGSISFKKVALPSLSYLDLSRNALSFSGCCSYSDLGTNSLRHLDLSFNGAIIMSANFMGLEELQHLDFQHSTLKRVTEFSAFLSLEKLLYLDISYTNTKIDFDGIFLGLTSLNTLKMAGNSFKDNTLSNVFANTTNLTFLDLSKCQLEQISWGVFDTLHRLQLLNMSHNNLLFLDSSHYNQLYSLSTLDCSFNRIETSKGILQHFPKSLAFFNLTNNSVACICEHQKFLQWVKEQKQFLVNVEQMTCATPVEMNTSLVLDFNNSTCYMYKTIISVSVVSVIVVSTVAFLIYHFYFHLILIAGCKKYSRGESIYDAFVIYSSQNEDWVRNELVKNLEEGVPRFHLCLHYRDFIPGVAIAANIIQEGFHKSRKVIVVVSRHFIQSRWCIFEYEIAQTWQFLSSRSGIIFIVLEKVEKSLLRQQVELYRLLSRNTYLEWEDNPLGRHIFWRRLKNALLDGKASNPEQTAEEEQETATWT
Settings: 50 mg/kg; four hours post-treatment; cited from earlier work

SMILES: O=C(O)CC1CC(c2ccccc2)=NO1 (stereo not shown) [GIT 27, 4,5-Dihydro-3-phenyl-5-isoxazoleacetic acid]
- edema: significantly reduced
